Experimental findings from patent US10246453B2, “Benzenesulfonamide compounds and their use as therapeutic agents” (Xenon Pharmaceuticals Inc., priority 2016, dated 2019) are described below.

Where a name gives a salt, the structure may show the parent alone. Some results are limits rather than exact numbers.

The target of one data set is NaV1.1 (Homo sapiens (Human), UniProt P35498). In words: Sodium Influx Assay (Flux), NaV1.1. Type of data set: cell-based. The following applies: Trex HEK293 cells, ANG2 dye; arithmetic mean.
The next data set addresses NaV1.6 (Homo sapiens (Human), UniProt Q9UQD0). Nature of the data set: Sodium Influx Assay (Flux), NaV1.6. The following applies: read-out: Flux NaV1.6 IC50; Trex HEK293 cells, ANG2 dye; arithmetic mean.
For a further data set, the target named is NaV1.5 (Homo sapiens (Human), UniProt Q14524). In words: Sodium Influx Assay (Flux), NaV1.5. Conditions: read-out: Flux NaV1.5 IC50; Trex HEK293 cells, ANG2 dye; arithmetic mean.
Chain of NaV1.5 (Q14524 other isoform, or with tags, fused parts or gaps): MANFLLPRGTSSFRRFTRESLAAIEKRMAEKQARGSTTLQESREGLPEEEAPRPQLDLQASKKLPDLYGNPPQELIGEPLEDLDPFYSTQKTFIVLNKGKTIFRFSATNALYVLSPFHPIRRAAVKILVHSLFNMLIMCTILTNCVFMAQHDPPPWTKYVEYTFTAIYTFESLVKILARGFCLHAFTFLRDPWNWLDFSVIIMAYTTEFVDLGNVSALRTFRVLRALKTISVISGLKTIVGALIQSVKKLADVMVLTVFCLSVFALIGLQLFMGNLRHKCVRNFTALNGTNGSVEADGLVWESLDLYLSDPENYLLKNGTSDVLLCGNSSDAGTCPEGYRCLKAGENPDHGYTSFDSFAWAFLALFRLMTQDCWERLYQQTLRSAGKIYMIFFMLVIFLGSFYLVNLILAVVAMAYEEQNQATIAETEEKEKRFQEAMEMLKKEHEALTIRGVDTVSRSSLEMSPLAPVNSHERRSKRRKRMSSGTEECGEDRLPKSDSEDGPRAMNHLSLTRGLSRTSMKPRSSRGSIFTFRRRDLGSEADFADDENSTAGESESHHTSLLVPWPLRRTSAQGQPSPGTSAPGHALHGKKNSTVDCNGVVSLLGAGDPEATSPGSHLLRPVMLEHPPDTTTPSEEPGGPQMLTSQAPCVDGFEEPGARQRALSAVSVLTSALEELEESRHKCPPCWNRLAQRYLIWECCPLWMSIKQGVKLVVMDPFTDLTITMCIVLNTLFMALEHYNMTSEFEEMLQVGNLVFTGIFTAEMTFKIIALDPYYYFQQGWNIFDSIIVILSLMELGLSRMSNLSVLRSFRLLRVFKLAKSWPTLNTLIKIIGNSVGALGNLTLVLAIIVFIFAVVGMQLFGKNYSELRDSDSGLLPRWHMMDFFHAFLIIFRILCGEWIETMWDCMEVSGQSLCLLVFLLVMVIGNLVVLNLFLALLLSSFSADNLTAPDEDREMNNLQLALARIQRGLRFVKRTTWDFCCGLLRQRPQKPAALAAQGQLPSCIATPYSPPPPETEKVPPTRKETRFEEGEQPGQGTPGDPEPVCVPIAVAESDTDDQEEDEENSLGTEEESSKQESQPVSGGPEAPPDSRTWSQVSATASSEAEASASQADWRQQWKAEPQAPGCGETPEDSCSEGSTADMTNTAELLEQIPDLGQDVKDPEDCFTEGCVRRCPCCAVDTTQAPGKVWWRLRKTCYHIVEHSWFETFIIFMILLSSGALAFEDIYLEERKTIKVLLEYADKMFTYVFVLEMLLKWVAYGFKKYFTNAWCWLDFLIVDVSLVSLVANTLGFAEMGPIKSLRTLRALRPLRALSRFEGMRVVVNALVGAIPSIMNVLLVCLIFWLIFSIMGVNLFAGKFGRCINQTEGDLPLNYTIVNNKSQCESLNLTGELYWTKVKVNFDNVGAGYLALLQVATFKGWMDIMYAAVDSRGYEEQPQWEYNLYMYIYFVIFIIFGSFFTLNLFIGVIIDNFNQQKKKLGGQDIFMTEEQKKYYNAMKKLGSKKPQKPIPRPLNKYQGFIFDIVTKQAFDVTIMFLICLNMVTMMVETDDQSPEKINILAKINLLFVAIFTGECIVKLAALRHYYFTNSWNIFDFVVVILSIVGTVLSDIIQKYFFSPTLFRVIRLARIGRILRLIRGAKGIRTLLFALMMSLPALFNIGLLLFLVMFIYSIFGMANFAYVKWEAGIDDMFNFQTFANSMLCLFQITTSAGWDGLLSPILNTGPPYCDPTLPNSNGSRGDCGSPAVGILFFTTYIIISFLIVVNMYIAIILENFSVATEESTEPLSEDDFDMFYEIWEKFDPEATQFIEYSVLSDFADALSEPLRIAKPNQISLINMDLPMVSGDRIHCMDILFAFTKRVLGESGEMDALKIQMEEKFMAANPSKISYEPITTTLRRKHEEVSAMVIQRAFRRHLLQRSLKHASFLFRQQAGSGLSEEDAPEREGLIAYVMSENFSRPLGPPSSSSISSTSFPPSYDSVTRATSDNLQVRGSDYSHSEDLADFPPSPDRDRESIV

As to `C[C@H](c1cc(C(F)F)ccc1F)N1CCC(Oc2ccc(S(=O)(=O)Nc3cscn3)cc2Cl)CC1` [Example 292, (R)-3-chloro-4-((1-(1-(5-(difluoromethyl)-2-fluorophenyl)ethyl)piperidin-4-yl)oxy)-N-(thiazol-4-yl)benzenesulfonamide formate], the IC50 (as a rule, the point on the concentration scale where inhibition reaches its midpoint) against NaV1.1 is 3.79 µM; at NaV1.6, 2.78 µM; on NaV1.5, 1.88 µM.

On to `CN(c1cc(F)c(S(=O)(=O)Nc2cscn2)cc1F)[C@H]1CCN(Cc2ccccc2)C1` [Example 293, (S)-4-((1-benzylpyrrolidin-3-yl)(methyl)amino)-2,5-difluoro-N-(thiazol-4-yl)benzenesulfonamide 2,2,2-trifluoroacetate], for which the values for the IC50 on NaV1.1, at NaV1.6 and on NaV1.5 were over 30 µM, 10.9 µM and over 30 µM, respectively.

Consider `CN(c1ccc(S(=O)(=O)Nc2cscn2)cc1C(F)(F)F)[C@H]1CCN(Cc2ccccc2)C1` [Example 294, (S)-4-((1-benzylpyrrolidin-3-yl)(methyl)amino)-N-(thiazol-4-yl)-3-(trifluoromethyl)benzenesulfonamide formate], for which the figures for the IC50 against NaV1.1, at NaV1.6 and at NaV1.5 were 15.7 µM, 2.35 µM and 16.4 µM, respectively.

With `Cc1c(OC2CCN(Cc3ccccc3)CC2)ccc(S(=O)(=O)Nc2cscn2)c1F` [Example 299, 4-((1-benzylpiperidin-4-yl)oxy)-2-fluoro-3-methyl-N-(thiazol-4-yl)benzenesulfonamide hydrochloride], the IC50 against NaV1.1 is over 30 µM; at NaV1.6, 0.324 µM; at NaV1.5 it was 26.6 µM.

For `C[C@@H](c1ccccc1)N1CCC(Oc2ccc(S(=O)(=O)Nc3ccncn3)cc2Cl)CC1` [Example 301, (S)-3-chloro-4-((1-(1-phenylethyl)piperidin-4-yl)oxy)-N-(pyrimidin-4-yl)benzenesulfonamide], the IC50 against NaV1.1 was over 30 µM; on NaV1.6, 2.14 µM; on NaV1.5, over 30 µM.

On to `Cc1c(N(C)[C@H]2CCN(Cc3ccccc3)C2)cc(F)c(S(=O)(=O)Nc2ccc(F)cn2)c1F` [Example 302, (S)-4-((1-benzylpyrrolidin-3-yl)(methyl)amino)-2,6-difluoro-N-(5-fluoropyridin-2-yl)-3-methylbenzenesulfonamide formate], for which the figures for the IC50 against NaV1.1, on NaV1.6 and on NaV1.5 were 9.55 µM, 1.16 µM and 28.9 µM, respectively.

On to `O=S(=O)(Nc1cscn1)c1ccc(OC2CCN(C3(c4ccccc4)CC3)CC2)c(Cl)c1` [Example 303, 3-chloro-4-((1-(1-phenylcyclopropyl)piperidin-4-yl)oxy)-N-(thiazol-4-yl)benzenesulfonamide], for which the results for the IC50 at NaV1.1, at NaV1.6 and on NaV1.5 were 7.06 µM, 2.44 µM and 4.62 µM, respectively.

With `C[C@H](c1ccccc1)N1CCC(Oc2ccc(S(=O)(=O)Nc3ncc(F)cn3)cc2Cl)CC1` [Example 304, (R)-3-chloro-N-(5-fluoropyrimidin-2-yl)-4-((1-(1-phenylethyl)piperidin-4-yl)oxy)benzenesulfonamide], the IC50 on NaV1.1 is over 30 µM; at NaV1.6 it was 2.48 µM; on NaV1.5 it was over 30 µM.

For `Cc1cc(S(=O)(=O)Nc2ccc(F)cn2)c(F)cc1N(C)[C@H]1CCN(Cc2ccccc2)C1` [Example 306, (S)-4-((1-benzylpyrrolidin-3-yl)(methyl)amino)-2-fluoro-N-(5-fluoropyridin-2-yl)-5-methylbenzenesulfonamide], the IC50 was found to be 6.73 µM on NaV1.1, 4.56 µM at NaV1.6 and 11.9 µM on NaV1.5.

For the compound `Cc1cc(S(=O)(=O)Nc2cnsc2)c(F)cc1N(C)[C@H]1CCN(Cc2ccccc2)C1` [Example 307, (S)-4-((1-benzylpyrrolidin-3-yl)(methyl)amino)-2-fluoro-N-(isothiazol-4-yl)-5-methyl benzenesulfonamide formate], the IC50 on NaV1.1 was found to be 4.11 µM; at NaV1.6, 5.31 µM; on NaV1.5, 9.79 µM.

For `Cc1cc(S(=O)(=O)Nc2cccc(F)n2)c(F)cc1N(C)[C@H]1CCN(Cc2ccccc2)C1` [Example 308, (S)-4-((1-benzylpyrrolidin-3-yl)(methyl)amino)-2-fluoro-N-(6-fluoropyridin-2-yl)-5-methylbenzenesulfonamide], the IC50 was 24.7 µM against NaV1.1, 1.47 µM on NaV1.6 and over 30 µM at NaV1.5.

Consider `CCN(c1cc(F)c(S(=O)(=O)Nc2cscn2)cc1C)[C@H]1CCN(Cc2ccccc2)C1` [Example 312, (S)-4-((1-benzylpyrrolidin-3-yl)(ethyl)amino)-2-fluoro-5-methyl-N-(thiazol-4-yl)benzenesulfonamide 2,2,2-trifluoroacetate], for which the IC50 against NaV1.1 was found to be 10.2 µM; on NaV1.6, 2.77 µM; at NaV1.5, 6.45 µM.

Regarding `C[C@H](c1ccccc1)N1CCC(Oc2ccc(S(=O)(=O)Nc3cscn3)c(F)c2F)CC1` [Example 313, (R)-2,3-difluoro-4-((1-(1-phenylethyl)piperidin-4-yl)oxy)-N-(thiazol-4-yl)benzenesulfonamide formate], the IC50 against NaV1.1 is 29.6 µM; at NaV1.6, 0.936 µM; at NaV1.5, over 30 µM.

With `Cc1ccc(F)c(CN2CC[C@H](N(C)c3cc(F)c(S(=O)(=O)Nc4cscn4)cc3Cl)C2)n1` [Example 314, (S)-5-chloro-2-fluoro-4-((1-((3-fluoro-6-methylpyridin-2-yl)methyl)pyrrolidin-3-yl)(methyl)amino)-N-(thiazol-4-yl)benzenesulfonamide], the IC50 is over 30 µM on NaV1.1, 0.73 µM at NaV1.6 and over 30 µM on NaV1.5.

Turning to `CN(c1cc(F)c(S(=O)(=O)Nc2cscn2)cc1Cl)[C@H]1CCN(Cc2cccc(N3CCC3)n2)C1` [Example 317, (S)-4-((1-((6-(azetidin-1-yl)pyridin-2-yl)methyl)pyrrolidin-3-yl)(methyl)amino)-5-chloro-2-fluoro-N-(thiazol-4-yl)benzenesulfonamide 2,2,2-trifluoroacetate], the figures for the IC50 against NaV1.1, on NaV1.6 and on NaV1.5 were 9.89 µM, 1.03 µM and 8.12 µM, respectively.

Turning to `Cc1c(N(C)[C@H]2CCN(Cc3cc(F)ccc3F)C2)ccc(S(=O)(=O)Nc2cscn2)c1F` [Example 322, (S)-4-((1-(2,5-difluorobenzyl)-pyrrolidin-3-yl)(methyl)amino)-2-fluoro-3-methyl-N-(thiazol-4-yl)benzenesulfonamide 2,2,2-trifluoroacetate], the IC50 on NaV1.1 was found to be 6.02 µM; on NaV1.6, 0.237 µM; at NaV1.5 it was 7.35 µM.

Turning to `Cc1c(N(C)[C@H]2CCN(Cc3cccc(C(F)F)c3)C2)ccc(S(=O)(=O)Nc2cscn2)c1F` [Example 323, (S)-4-((1-(3-(difluoromethyl)benzyl)-pyrrolidin-3-yl)(methyl)amino)-2-fluoro-3-methyl-N-(thiazol-4-yl)benzenesulfonamide], the IC50 on NaV1.1 turned out to be 12.3 µM; on NaV1.6, 0.209 µM; on NaV1.5 it was 13.6 µM.

Consider `Cc1ccc(F)c(CN2CC[C@H](N(C)c3ccc(S(=O)(=O)Nc4cscn4)c(F)c3C)C2)n1` [Example 324, (S)-2-fluoro-4-((1-((3-fluoro-6-methylpyridin-2-yl)methyl)pyrrolidin-3-yl)(methyl)amino)-3-methyl-N-(thiazol-4-yl)benzenesulfonamide 2,2,2-trifluoroacetate], for which the IC50 against NaV1.1 is over 30 µM; on NaV1.6 it was 0.403 µM; at NaV1.5 it was over 30 µM.

With `CN(c1ccc(S(=O)(=O)Nc2ncns2)cc1Cl)[C@H]1CCN(Cc2cc(F)ccc2F)C1` [Example 325, (S)-3-chloro-4-((1-(2,5-difluorobenzyl)pyrrolidin-3-yl)(methyl)amino)-N-(1,2,4-thiadiazol-5-yl)benzenesulfonamide], the IC50 against NaV1.1 came to 23.2 µM; at NaV1.6 it was 0.26 µM; at NaV1.5, 27 µM.

Regarding `CN(c1ccc(S(=O)(=O)Nc2ncns2)cc1Cl)[C@H]1CCN(Cc2c(F)cccc2F)C1` [Example 326, (S)-3-chloro-4-((1-(2,6-difluorobenzyl)pyrrolidin-3-yl)(methyl)amino)-N-(1,2,4-thiadiazol-5-yl)benzenesulfonamide], the IC50 was over 30 µM against NaV1.1, 0.303 µM on NaV1.6 and 24.5 µM on NaV1.5.

As for `CN(c1ccc(S(=O)(=O)Nc2cscn2)c(F)c1Cl)[C@H]1CCN(Cc2ccccc2)C1` [Example 328, (S)-4-((1-benzylpyrrolidin-3-yl)(methyl)amino)-3-chloro-2-fluoro-N-(thiazol-4-yl)benzenesulfonamide 2,2,2-trifluoroacetate], the IC50 on NaV1.1 came to 16.3 µM; at NaV1.6, 0.786 µM; at NaV1.5 it was 18.3 µM.

`Cc1cc(S(=O)(=O)Nc2cscn2)c(F)cc1N(C)[C@H]1CCN(Cc2cccc(F)c2F)C1` [compound 156, (S)-4-((1-(2,3-difluorobenzyl)pyrrolidin-3-yl)(methyl)amino)-2-fluoro-5-methyl-N-(thiazol-4-yl)benzenesulfonamide]: the results for the IC50 at NaV1.1, on NaV1.6 and at NaV1.5 were 7.8 µM, 0.298 µM and 10.3 µM, respectively.
